These compounds were tested against T1, PTK2 (Homo sapiens, UniProt Q05397) (assay: PTK2 enzyme test, Assay 1 (DELFIA, PT60 antibody)). Settings: 1 h pre-incubation, 1 h kinase reaction, values without *.
T1 construct: purchased Invitrogen PV3832
T1 sequence (Q05397 whole entry): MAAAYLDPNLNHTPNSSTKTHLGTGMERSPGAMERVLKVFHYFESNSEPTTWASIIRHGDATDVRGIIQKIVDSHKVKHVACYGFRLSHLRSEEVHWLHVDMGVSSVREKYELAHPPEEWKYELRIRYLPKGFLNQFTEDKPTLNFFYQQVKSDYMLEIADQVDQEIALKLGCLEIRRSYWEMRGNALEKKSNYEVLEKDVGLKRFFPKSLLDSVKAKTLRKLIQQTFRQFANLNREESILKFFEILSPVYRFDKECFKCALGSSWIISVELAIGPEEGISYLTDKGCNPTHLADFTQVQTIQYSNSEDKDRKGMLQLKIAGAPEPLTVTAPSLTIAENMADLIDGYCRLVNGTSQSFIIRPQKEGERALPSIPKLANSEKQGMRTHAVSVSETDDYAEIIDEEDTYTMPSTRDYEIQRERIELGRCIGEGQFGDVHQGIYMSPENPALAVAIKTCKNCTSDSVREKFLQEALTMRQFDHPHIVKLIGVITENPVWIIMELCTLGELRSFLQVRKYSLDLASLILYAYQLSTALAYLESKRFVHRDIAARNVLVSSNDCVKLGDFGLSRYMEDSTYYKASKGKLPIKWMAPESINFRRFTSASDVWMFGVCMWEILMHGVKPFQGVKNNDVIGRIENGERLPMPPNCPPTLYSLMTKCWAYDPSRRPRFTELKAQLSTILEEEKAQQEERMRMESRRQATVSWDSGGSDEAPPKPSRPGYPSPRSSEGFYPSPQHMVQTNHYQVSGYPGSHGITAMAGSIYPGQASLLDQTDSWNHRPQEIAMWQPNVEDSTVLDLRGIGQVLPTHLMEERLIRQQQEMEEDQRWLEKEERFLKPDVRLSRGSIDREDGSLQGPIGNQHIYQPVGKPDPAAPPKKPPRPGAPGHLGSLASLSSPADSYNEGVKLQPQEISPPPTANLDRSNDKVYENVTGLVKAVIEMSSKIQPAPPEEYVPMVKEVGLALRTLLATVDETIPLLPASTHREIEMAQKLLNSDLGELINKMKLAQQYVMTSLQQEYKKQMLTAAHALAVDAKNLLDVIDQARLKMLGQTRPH
Format: biochemical
Compound `COc1cc(C(=O)NC2CCN(C)CC2)c(Cl)cc1Nc1ncc(C(F)(F)F)c(O[C@@H]2CCC[C@H]2N(C)S(C)(=O)=O)n1` [Example 102, 2-chloro-4-{4-[(1R,2R)-2-(methanesulphonyl-methyl-amino)-cyclopentyloxy]-5-trifluoromethyl-pyrimidin-2-ylamino}-5-methoxy-N-(1-methyl-piperidin-4-yl)-benzamide] has an IC50 of 0.61 nM. Work on `COc1cc(C(=O)NC2CCN(C)CC2)c(F)cc1Nc1ncc(C(F)(F)F)c(O[C@@H]2CCC[C@H]2N(C)S(C)(=O)=O)n1` [Example 103, 2-fluoro-4-{4-[(1R,2R)-2-(methanesulphonyl-methyl-amino)-cyclopentyloxy]-5-trifluoromethyl-pyrimidin-2-ylamino}-5-methoxy-N-(1-methyl-piperidin-4-yl)-benzamide] yielded an IC50 of 0.28 nM. `COc1cc(C(=O)NC2CCN(C)CC2)c(F)cc1Nc1ncc(C(F)(F)F)c(O[C@@H]2CCCC[C@H]2NS(C)(=O)=O)n1` [Example 105] showed an IC50 of 0.39 nM. `COc1cc(C(=O)NCCN(C)C)c(F)cc1Nc1ncc(C(F)(F)F)c(O[C@@H]2CCCC[C@H]2NS(C)(=O)=O)n1` [Example 106] showed an IC50 of 1 nM. Compound `COc1cc(C(=O)NC2CCN(C)CC2)c(F)cc1Nc1ncc(C(F)(F)F)c(O[C@@H]2CCC[C@H]2NS(=O)(=O)C(F)(F)F)n1` [Example 107] has an IC50 of 103 nM. `COc1cc(C(=O)NCCN(C)C)c(Cl)cc1Nc1ncc(C(F)(F)F)c(O[C@@H]2CCCC[C@H]2NS(C)(=O)=O)n1` [Example 108] showed an IC50 of 0.44 nM. With `COc1cc(C(=O)NCCN(C)C)c(Cl)cc1Nc1ncc(C(F)(F)F)c(O[C@@H]2CCCC[C@H]2N(C)S(C)(=O)=O)n1` [Example 109] the IC50 was 0.35 nM. `COc1cc(C(=O)NCCN(C)C)c(F)cc1Nc1ncc(C(F)(F)F)c(O[C@@H]2CCCC[C@H]2N(C)S(C)(=O)=O)n1` [Example 110] showed an IC50 of 0.35 nM. For `COc1cc(C(=O)NCCN(C)C)ccc1Nc1ncc(C(F)(F)F)c(O[C@@H]2CCCC[C@H]2N(C)S(C)(=O)=O)n1` [Example 111], the IC50 was 0.36 nM.

Each compound was assayed against T1, PTK2 (assay: PTK2 enzyme test, Assay 2 (DELFIA, PT66 antibody)). Settings: values marked (*), read-out: PTK2 1 h IC50.
Format: biochemical
Description: This test uses active PTK2 enzyme (Invitrogen Code PV3832) and poly-Glu-Tyr (4:1, Sigma P-0275) as the kinase substrate. The kinase activity is detected by means of the phosphorylation of the substrate in a DELFIA™ assay. The phosphorylated substrate is detected with the europium-labelled phosphotyrosine antibody PT66 (Perkin Elmer, No.: AD0040).
In order to determine concentration-activity curves with PTK2-inhibitors the compounds are serially diluted first of all in 100% DMSO and then in kinase dilution buffer (20 mM TRIS/HCl pH 7.5, 0.1 mM EDTA, 0.1 mM EGTA, 0.286 mM sodium orthovanadate, 10% glycerol with the addition of freshly prepared BSA (fraction V, 1 mg/mL) and DTT (1 mM)) and 10 μL of each dilution are dispensed per well in a 96-well microtitre plate (clear U-shaped base plate, Greiner No. 650101) (the inhibitors are tested in duplicates) and mixed with 10 μL/well of PTK2 kinase (0.01 μg/well). PTK2 kinase is diluted accordingly beforehand with kinase dilution buffer. […]
The time-delayed europium fluorescence is then measured in a microtitre plate reader (VICTOR^3, Perkin Elmer). […]
The IC50 values are determined from concentration-activity analyses by iterative calculation using a sigmoid curve analysis algorithm (FIFTY, based on GraphPAD Prism Version 3.03) with a variable Hill coefficient.
With `COc1ccc(C(=O)NC2CCN(C)CC2)cc1Nc1ncc(C(F)(F)F)c(O[C@@H]2Cc3ccccc3[C@H]2N(C)S(C)(=O)=O)n1` [Example 79, 3-{4-[(1R,2R)-1-(methanesulphonyl-methyl-amino)-indan-2-yloxy]-5-trifluoromethyl-pyrimidin-2-ylamino}-4-methoxy-N-(1-methyl-piperidin-4-yl)-benzamide] the IC50 was 0.4 nM. `COc1cc(N2CCN(C(C)(C)C)CC2)ccc1Nc1ncc(C(F)(F)F)c(O[C@@H]2Cc3ccccc3[C@H]2N(C)S(C)(=O)=O)n1` [Example 90, N-((1R,2R)-2-{2-[4-(4-tert-butyl-piperazin-1-yl)-2-methoxy-phenylamino]-5-trifluoromethyl-pyrimidin-4-yloxy}-indan-1-yl)-N-methyl-methanesulphonamide] gave an IC50 of 0.85 nM.

Reference: US8466155B2, “Pyrimidines” (Boehringer Ingelheim International GmbH, priority 2009, dated 2013)
